ChEMBL document CHEMBL1157539, “Thousands of chemical starting points for antimalarial lead identification” (Nature, 2010)

These molecules were tested on Plasmodium falciparum (assay: GSK_TCMDC: Inhibition of Plasmodium falciparum 3D7 in whole erythrocytes, using parasite LDH activity as an index of growth.). Settings: Plasmodium falciparum, 3D7.
Format: functional, organism-based

| Structure (SMILES) | XC50 |
| --- | --- |
| COCCN1CCC(N(Cc2ccc(-c3ccc(C(F)(F)F)cc3)cc2)C(=O)Cn2c(CCc3cccc(F)c3F)cc(=O)c3c2CCC3)CC1 | 1320 nM |
| COc1ccccc1CCNC(=O)c1cnc(N2CCN(c3ccncc3)CC2)c(Cl)c1 | 1150 nM |
| COC(=O)Nc1cc(C(F)(F)F)ccc1N1CCCC(NS(=O)(=O)c2ccc(C(C)(C)C)cc2)C1 (stereo not drawn) | 380 nM |
| c1ccc(CN2CCCN(c3ccc4c(c3)CCN(Cc3ccc(-c5ncc[nH]5)cc3)CC4)CC2)cc1 | 762 nM |
| CCc1c(CCNCCCCCCNCCc2ccc([N+](=O)[O-])cc2)ccc(OC)c1OC | 727 nM |
| CCCC(CNCc1cccc(OC(F)(F)C(F)F)c1)CNc1cc(=O)c2ccccc2[nH]1 (stereo not drawn) | 595 nM |
| COc1ccc2nccc([C@@H](O)CN3CCC(NC(=O)c4ccc(Oc5ccccc5)cc4)CC3)c2c1 | 1380 nM |
| CC1(C)N=C(N)N=C(N)N1OCc1ccc2c(c1)OCO2 | 3.68 nM |
| CC[C@H]1CN2CC[C@H]1C[C@H]2[C@H](O)c1cc(-c2ccccc2F)nc2ccc(OC)cc12 | 78.9 nM |
| COCc1ccccc1C(=O)NCCOc1cc(C)cc(C)c1 | 353 nM |
| CCc1cn2c3c(cc(C(=O)N[C@@H](Cc4cccc(F)c4)[C@H](O)CNC4CC4)cc13)N(C)S(=O)(=O)CC2 | 143 nM |
| CCCCCCn1c2c(c(=N)c3c1CCC3)CCCC2 | 291 nM |
| COC(=O)c1ccc(CC(C)NCC(O)c2cccc(C(F)(F)F)c2)cc1F (stereo not drawn) | 1060 nM |
| c1ccc(COc2ccc(Cn3ccc(-c4ccc(-n5ccnc5)cc4)n3)cc2)cc1.c1ccc(COc2ccc(Cn3nccc3-c3ccc(-n4ccnc4)cc3)cc2)cc1 | 1020 nM |
| Cc1cc(N2CCOCC2)nc2ccc(NC(=O)c3cccc([N+](=O)[O-])c3)cc12 | 890 nM |
| CCN(CC)c1ccc(C(c2ccc(N(CC)CC)cc2)c2cccc([N+](=O)[O-])c2)cc1 | 381 nM |
| COc1ccc2[nH]c(C)cc(=NN=Cc3cccc(Cl)c3)c2c1 | 632 nM |
| Cc1noc(C)c1-c1ccc2c(Nc3ccccc3C(C)(C)C)c(C(=O)NC3CCCC3)cnc2c1 | 1040 nM |
| Oc1ccc(CCNc2nc(NCc3ccccc3-c3cccc(Cl)c3)nc(N3CCNCC3)n2)cc1 | 1280 nM |
| CC(Cc1ccc(Sc2ccccc2)cc1)NCC(O)c1cccc(C(F)(F)F)c1 (stereo not drawn) | 589 nM |
| CCCC(=O)NC(c1cccs1)c1cc(Cl)c2cccnc2c1O (stereo not drawn) | 848 nM |
| CCCCCCCn1c(=N)n(CC(O)c2ccc(Cl)c(Cl)c2)c2ccccc21 (stereo not drawn) | 782 nM |
| Nc1ncc(Cc2ccc3c(ccc4ccccc43)c2)c(N)n1 | 758 nM |
| O=C(NCCc1ccccc1)N(Cc1ccc(-c2cccc(CN3CCNCC3)c2)cc1)C1CCN(Cc2ccccc2)CC1 | 1360 nM |
| Cc1nc2ccc3ccc(CNc4ccc(C#N)cc4)cc3c2c(=O)[nH]1 | 1440 nM |

| Structure (SMILES) | XC50 |
| --- | --- |
| COc1ccc(CNCc2cccc(-c3ccc(-c4nc5cc(C(F)(F)F)ccc5[nH]4)cc3)c2)cc1 | 126 nM |
| Cc1cc2cc(CNCCc3ccccc3Br)ccc2nc1N | 243 nM |
| CC(=O)N[C@H](C(=O)Nc1ccc(-c2ccc(-c3nc4cc(C(F)(F)F)ccc4[nH]3)cc2)cc1)C(C)C | 889 nM |
| COc1ccc(CSC2CCCCC23NC(=S)NC3=S)cc1 (stereo not drawn) | 850 nM |
| c1ccc(C(c2ccccc2)N2CCN(C(c3cccnc3)c3nnnn3C3CCCC3)CC2)cc1 (stereo not drawn) | 1080 nM |
| COc1ccc2nccc(N3CCC(CCNCc4cc5c(cn4)OCCO5)CC3)c2n1 | 224 nM |
| [O-][s+]1c(Cl)c(-c2ccc(Cl)cc2)c2ccc(Cl)cc21 (stereo not drawn) | 993 nM |
| CN(CCON1C(=N)N=C(N)NC1(C)C)c1ccccc1 | 19.4 nM |
| Cc1ccc(NC(=O)c2cccc(CN3CCCN(CC4CCCCC4)CC3)c2)cc1F | 596 nM |
| COc1ccc2nccc(NC(=O)CNCc3ccc(-c4ccccc4)cc3)c2c1 | 769 nM |
| COc1cc2nc(NCC3CCN(C(=O)c4ccc(-c5ccc(C(=O)N(C)C)cc5C)cc4)CC3)nc(N)c2cc1OC | 948 nM |
| c1cc(CN2CCCCC2)cc(-c2cccc(-c3nc4ccccc4[nH]3)c2)c1 | 828 nM |
| Cc1cc(Nc2cccc(Cl)c2)nc2ccc(NC(=O)c3ccc(=O)[nH]c3)cc12 | 995 nM |
| N#CCSc1nnc(-c2ccccc2)c2ccccc12 | 723 nM |
| COc1ccccc1C1CCN(C2CCC(NC(=O)/C=C/c3ccc4c(c3)OC(F)(F)O4)CC2)CC1 (stereo not drawn) | 836 nM |
| CCOc1ccc(C(Cc2ccccc2)NC(=O)c2cccnc2)cc1OCC (stereo not drawn) | 769 nM |
| CCNc1cc(C(=O)N[C@@H](Cc2ccccc2)[C@H](O)CNC23CCC(CC2)CC3)cc(N2CCCCS2(=O)=O)c1 | 63.2 nM |
| CN(Cc1ccncc1)C(Cc1ccccc1)C1CCN(Cc2ccc(O)c(Cl)c2)CC1 (stereo not drawn) | 747 nM |
| COc1cccc(OC)c1-c1ccccc1NC(=O)N1CCCc2cc(C)ccc21 | 823 nM |
| CCOc1ccc2c(=NN=Cc3ccc(OC)c(OC)c3)cc(C)[nH]c2c1 | 700 nM |
| O=C(N[C@H]1CCN(CCc2ccc(O[C@H]3CCNC3)c(Cl)c2)C1)c1ccc(Cl)c(Cl)c1 | 890 nM |
| COc1ccc(-c2cccc(NC(=O)c3ccc(C#N)cc3)c2)cc1CN1CCN(C)CC1 | 990 nM |
| O=C(/C=C/c1ccc(Cl)c(Cl)c1)NCCCCCN1CC[C@H](NC(=O)c2sc3ccccc3c2Cl)C1 | 809 nM |
| Cc1cc(F)ccc1N(c1nc(-c2cc(Cl)ccc2Cl)cs1)C1CCNC1 (stereo not drawn) | 1010 nM |
| Cc1cc(C(=O)Nc2ccc3c(c2)CCN3C2CCN(Cc3csc4ccccc34)C2)no1 (stereo not drawn) | 119 nM |

| Structure (SMILES) | XC50 |
| --- | --- |
| COC(=O)c1cc(/C(C)=N/Nc2nc3ccccc3[nH]2)ccc1O | 676 nM |
| CCOc1cccc(C(=O)Nc2cccc(CN3CCCN(Cc4cccc(O)c4)CC3)c2)c1 | 1090 nM |
| CC(=O)Nc1cc(C(=O)Nc2cccc(-c3cccc(-c4nc5cc(C(F)(F)F)ccc5[nH]4)c3)c2)ccc1C | 215 nM |
| COc1ccc2nccc([C@@H](O)CN3CCC(NCc4ccc5c(c4)OCCO5)CC3)c2c1 | 288 nM |
| Cc1cc(N)c2cc(NC(=O)c3cc4ccccc4s3)ccc2n1 | 115 nM |
| CC[C@H]1CN2CC[C@@H]1C[C@H]2[C@H](O)c1cc[n+]([O-])c2ccc(OC)cc12 | 748 nM |
| O=C(NC1CC1)c1ccc(N2CCCCN2CCc2ccccc2)c(C(F)(F)F)c1 | 622 nM |
| CCNc1cc(C(=O)N[C@@H](Cc2ccccc2Cl)[C@H](O)CNC2CCCCC2)cc(N2CCCCS2(=O)=O)c1 | 803 nM |
| CCCSc1nc2c(c(=O)n1Cc1ccco1)C1(CCCCC1)Cc1ccccc1-2 | 424 nM |
| CC(C)N(C)C(=O)n1cnc(S(=O)(=O)C2CC3CCC2C3)n1 (stereo not drawn) | 57 nM |
| COC(=O)c1cc(C(O)CNC(C)CCc2cccc(F)c2)ccc1O (stereo not drawn) | 1180 nM |
| O=C(NCCN1CCCC1)c1cccc(Nc2nccc(Nc3ccc(Oc4ccccc4)cc3)n2)c1 | 654 nM |
| c1ccc(CNc2nc(NCCN3CCCCC3)nc3ccccc23)cc1 | 1020 nM |
| Cc1cccc2nc(-c3ccc(-c4cccc(CN5CCCCC5)c4)s3)[nH]c12 | 468 nM |
| CN1CCC(N2CCN(Cc3ccc(-c4cccc(-c5nc6cc(F)ccc6[nH]5)c4)cc3)CC2)CC1 | 173 nM |
| COc1ccc(C(C(=O)NC2CCN(C[C@H](O)c3ccnc4ccc(OC)cc34)CC2)N2CCN(c3ccc(F)cc3)CC2)cc1 (stereo partly drawn) | 214 nM |
| CC(C)(C)c1ccc(-c2ccccc2CNC(=O)c2cccc(O)c2)cc1 | 267 nM |
| Cc1ccccc1OCC(=O)Nc1ccc(-c2nc3cc4ccccc4cc3[nH]2)cc1 | 753 nM |
| CC(C)(C)CCN1CCC(CNC(=O)c2cc(-c3cccc(C(F)(F)F)c3)cs2)C1 (stereo not drawn) | 887 nM |
| Cc1cc(CN2CCC(N3CC(c4ccccc4)(c4ccccc4)OC3=O)C2)ccc1O (stereo not drawn) | 776 nM |
| COc1ccc2nccc([C@@H](O)CN3CCC(NCc4nc5ccccc5[nH]4)CC3)c2c1 | 1070 nM |
| CC(=O)Oc1c(C2C=CCCC2)c(OC(C)=O)c2ccccc2c1OC(C)=O (stereo not drawn) | 605 nM |
| Cc1cc(=NN=Cc2ccc(Cl)cc2)c2cc(F)ccc2[nH]1 | 828 nM |
| CC(C(=O)Nc1ccc(Br)cc1Br)N1CCN(C(=O)c2ccco2)CC1 (stereo not drawn) | 750 nM |
| COc1ccc(Cc2c(Cl)nc3nc(N)nc(N)c3c2C)c(OC)c1OC | 725 nM |

| Structure (SMILES) | XC50 |
| --- | --- |
| COc1cccc(C(=O)NCc2nnc(S)n2-c2ccc(Cl)c(Cl)c2)c1 | 173 nM |
| O=C(NCC1CCN(Cc2ccc3c(c2)OCCO3)C1)c1cc(-c2cccc(C(F)(F)F)c2)cs1 (stereo not drawn) | 978 nM |
| Cc1ccc(Cn2ncc(NC3CCNCC3)c(Cl)c2=O)cc1NC(=O)Nc1ccc(-c2ccccc2)cc1 | 657 nM |
| C=CC(=O)Nc1ccc(Cl)cc1C(O)c1ccccc1 (stereo not drawn) | 182 nM |
| Cc1cc(Nc2ccc(C)c(Cl)c2)n2ncnc2n1 | 552 nM |
| Cc1nc2nc(N)nc(N)c2c(C)c1Cc1ccccc1Br | 60.2 nM |
| N#Cc1cccc(Nc2nccc(NCC(O)c3ccc(C(F)(F)F)cc3)n2)c1 (stereo not drawn) | 556 nM |
| Cc1nc2ccccc2n1C1CC2CCC(C1)N2Cc1nccn1-c1ccccc1 (stereo not drawn) | 366 nM |
| NCC(NC(=O)c1ccc(-c2c[nH]c3ncccc23)s1)c1ccccc1 (stereo not drawn) | 546 nM |
| COc1ccc(Cn2c(Nc3cccc(C(F)(F)F)c3)nc3cc(C(=O)NCCN4CCCC4)ccc32)cc1Cl | 830 nM |
| COc1cc(OC)nc(-c2cccc(NC(=O)c3ccc4c(=O)n(CCN5CCCCC5)cnc4c3)c2)n1 | 744 nM |
| Cc1cc(OCCCN2CCC(NS(=O)(=O)c3cccc(Br)c3)C2)c2ccccc2n1 (stereo not drawn) | 1210 nM |
| COc1cc(CNCCCCCCNCc2cc(OC)c(OC)c3ccccc23)c2ccccc2c1OC | 235 nM |
| CCN1CCN(c2cc(C)c3cc(NC(=O)c4cc(OC)cc(OC)c4)ccc3n2)CC1 | 156 nM |
| CCOc1ccc(-n2nc3c(Cl)nnc(-c4ccccc4)c3c2-c2ccccc2)cc1 | 226 nM |
| Cc1ccc2nc(-c3ccc(/C=C/C(=O)NC4CCN(Cc5ccccc5)CC4)cc3)[nH]c2c1C | 632 nM |
| CC[C@H](NC(=O)c1c(CC2CCN(CC(C)=O)CC2)c(-c2ccccc2)nc2ccccc12)c1ccccc1 | 381 nM |
| Cc1cnc(-c2ccc(NC(=O)c3coc4ccc(N5CC(C)N(C)C(C)C5)cc34)cc2)o1 (stereo not drawn) | 645 nM |
| CN1CC=C(c2c[nH]c3ccc(Sc4ccccc4)cc23)CC1 | 356 nM |
| COc1ccc2nc(-c3cc(-c4ccc(NC(=O)C(C)C)cc4)cnc3N)[nH]c2c1 | 557 nM |
| N#Cc1ccc(-c2ccc(C(=O)NCCCCN3CCC(n4cnc5ccccc54)CC3)cc2)cc1 | 910 nM |
| Cc1c(C(=O)Nc2cc(Sc3ccc(F)cc3)cc([N+](=O)[O-])c2)sc2ncn(Cc3ccccc3F)c(=O)c12 | 798 nM |
| Cc1ccccc1Nc1nc(NCCc2ccccc2)nc2ccccc12 | 1260 nM |
